# Laboratory results reported in patent publication US8916498B2, “Safening 6-(trisubstituted phenyl)-4-amino-2-pyridinecarboxylate herbicide injury on direct seeded and transplanted paddy rice” (priority 2008, dated 2014).
# Values joined by “and” are separate entries in the source; they are usually repeats but may differ in a detail not shown here. Equal values may be shown once.
# Tests used:
# [1] = system: weed test plant species; experiment: Herbicidal safening in transplanted paddy rice, visual injury on weeds; type: in vivo; settings: after 3 weeks; for Visual Injury (%) SCPJU Obs: Scirpus juncoides
# Procedure: (§1) Evaluation of Herbicidal Safening in Transplanted Paddy Rice
# (§2) The prepared mud was dispensed in 250 mL aliquots into 480 mL non-perforated plastic pots with a surface area of 91.6 cm^2 leaving a headspace of 3 cm in each pot. Rice seeds were planted in Sun Gro MetroMix 306 planting mixture, which typically has a pH of 6.0 to 6.8 and an organic matter content of about 30 percent, in plastic plug trays. Seedlings at the second or third leaf stage of growth were transplanted into 650 mL of mud contained in 960 mL non-perforated plastic pots with a surface area of 91.6 cm^2 four days prior to herbicide application. The paddy was created by filling the 3 cm headspace of the pots with water. […] Nutrients were added as Osmocote (17:6:10, Nitrogen:Phosphorus:Potassium (N:P:K)+minor nutrients) at 2 grams (g) per cup.
# (§3) For technical grade compounds and safeners, a weighed amount, determined by the highest rate to be tested, was placed in an individual 120 mL glass vial and was dissolved in 20 mL of acetone to obtain concentrated stock solutions. […] The concentrated stock solutions obtained were diluted with 20 mL of acetone. Applications were made by injecting an appropriate amount of the stock solution into the aqueous layer of the paddy. […] All treated plant material received the same concentration of acetone and crop oil concentrate.
# [2] = system: transplanted paddy rice; experiment: Safening activity of herbicide mixtures in transplanted paddy rice; type: in vivo, Oryza sativa
# Procedure: as §2, §3
# Forms of compound 1 were applied on an acid equivalent basis.
# [3] = system: transplanted paddy rice; experiment: Herbicidal safening in transplanted paddy rice, visual injury; type: in vivo, Oryza sativa; settings: after 3 weeks
# Procedure: as §1, §2, §3
smiles,measurement,setting,value
CCN(CC)CC.COc1c(Cl)ccc(-c2cc(N)c(Cl)c(C(=O)O)n2)c1F [Compound 1 TEA Salt],Visual Injury (%) SCPJU Obs,[1]; herbicide 70 g ae/ha alone,100%
same,Visual Injury (%) SCPJU Obs,[1]; herbicide 140 g ae/ha alone,100%
same,Visual Injury (%) ECHCG Obs,[1]; herbicide 70 g ae/ha alone,99%
same,Visual Injury (%) ECHCG Obs,[1]; herbicide 140 g ae/ha alone,100%
same,Visual Injury (%) ‘M202’ ORYSA Obs,[2]; compound 35 g/ha alone,20%
same,Visual Injury (%) ‘M202’ ORYSA Obs,[2]; compound 70 g/ha alone,35% and 50%
same,Visual Injury (%) ‘M202’ ORYSA Obs,[3]; herbicide 70 g ae/ha alone,65%
same,‘M202’ ORYSA Visual Injury (%) Obs,[3]; herbicide 70 g ae/ha alone,60%
same,Visual Injury (%) ‘M202’ ORYSA Obs,[3]; herbicide 140 g ae/ha alone,70%
same,‘M202’ ORYSA Visual Injury (%) Obs,[3]; herbicide 140 g ae/ha alone,85%
